# Reference: publication PMC5522442, “β-Ginkgotides: Hyperdisulfide-constrained peptides from Ginkgo biloba” (Scientific Reports, 2017)
# Bridge positions count the residues as written; N and C are the ends. Peptide text beside a SMILES is read from it.
# Tests used:
# [1] = system: BHK cell line; test: In vitro cytotoxicity (MTT), BHK cells; format: cell-based; conditions: concentrations up to 100 µM, 24 hr
# [2] = system: erythrocytes obtained from human type O blood; test: Hemolytic effect on erythrocytes; format: cell-based; conditions: human type O erythrocytes in PBS; concentrations up to 100 µM; 4 hr, 37 °C; read at 415 nm
# Method: Erythrocytes were isolated from fresh blood type O+ by centrifugation for 15 min at 10000 rpm. The erythrocytes were diluted with phosphate-buffered saline, mixed with various concentrations of β-ginkgotide β-gB1 (1–100 µM) and incubated for 4 hr at 37 °C. The hemolytic effect was examined using a microplate reader set at 415 nm^3.
# [3] = Enzymatic stability against carboxypeptidase A; format: in vitro ADME; conditions: isolated enzyme carboxypeptidase; exopeptidase carboxypeptidase A (method prints 100 nM carboxypeptidase B), up to 6 hr, 37 °C, 50 mM Tris-HCl pH 7.5, 100 mM NaCl; 28 µg peptide; UPLC peak area with MALDI-TOF MS; read-out: peptide remaining after carboxypeptidase A
# [4] = Enzymatic stability against trypsin; format: in vitro ADME; conditions: isolated enzyme trypsin; endopeptidase trypsin, up to 6 hr, 37 °C, 100 mM ammonium bicarbonate pH 7.8; 28 µg peptide; quenched with 1 M HCl; UPLC peak area with MALDI-TOF MS; read-out: peptide remaining after trypsin
# Method: The β-ginkgotide β-gB1 (28 µg) was added to 100 µL of 100 mM ammonium bicarbonate buffer (pH 7.8) and incubated in a water bath at 37 °C for 6 hr. At each time-point (0 and 6 hr), 20 µL of the treated sample was aliquoted and quenched by adding 5 µL of 1 M hydrochloric acid.
# The reaction mixture was analyzed by a Nexera UHPLC system (Shimadzu, Kyoto, Japan) equipped with an Aeris peptide XB-C18 column (Phenomenex, CA, USA; particle size 3.6 µm, 100 × 4.6 mm). The eluents were monitored with MALDI-TOF MS, and the area under the peak before and after the treatment was determined to evaluate stability.
# Figure S5. Stability assays of β-gB1. (A) Thermal stability of β-gB1 incubated at 100 °C for 120 minutes. (B) Acidic condition stability of […] incubated in 0.2 M HCl (pH 2.0) at 37 °C for 120 minutes. […] The molecular weight of the peak was determined by MALDI-TOF MS.
# [5] = system: Vero cell line; test: In vitro cytotoxicity (MTT), Vero cells; format: cell-based; conditions: concentrations up to 100 µM, 24 hr
compound,measurement,setting,value
"CC[C@H](C)[C@@H]1NC(=O)[C@@H]2CSSC[C@H](NC(=O)CNC(=O)[C@@H](NC(=O)[C@H](CCC(=O)O)NC(=O)[C@@H](N)Cc3ccc(O)cc3)[C@@H](C)O)C(=O)N[C@@H](CCCCN)C(=O)N[C@@H](CCCNC(=N)N)C(=O)N[C@H]3CSSC[C@@H](C(=O)O)NC(=O)[C@H](CSSC[C@H](NC3=O)C(=O)N[C@@H](Cc3ccc(O)cc3)C(=O)N[C@@H](CC(C)C)C(=O)N[C@@H](CC(=O)O)C(=O)N[C@@H](CCC(=O)O)C(=O)N[C@@H](Cc3ccc(O)cc3)C(=O)NCC(=O)N2)NC(=O)[C@H](CCCNC(=N)N)NC1=O [β-gB1] (H-YETGCKRCCYLDEYGCIRCC-OH; disulfide 5-16, 8-20, 9-19)","cytotoxic effect, BHK cells",[1],nontoxic
same,hemolytic effect,[2],no hemolytic effect
same,remaining at 6 h,[3],> 90%
same,remaining at 6 h,[4],> 90%
same,"cytotoxic effect, Vero cells",[5],nontoxic
